Test system: Modified CHO K1 cells
Assay: Selection efficiency of transfectant cells by FACS (GFP+ population)
Format: cell-based, Chinese hamster
Source text: Modified CHO K1 cells were transfected with a plasmid vector containing CHO-GPT (SEQ ID NO: 2), human GPT (SEQ ID NO:12) or a plasmid vector containing a hygromycin phosphotransferase (Hpt, Hygromycin resistant gene); e.g. the selectable marker gene (CHO-GPT or hpt) was transcriptionally linked to a downstream eGFP gene via an IRES sequence, in their respective vectors. For example, each plasmid was constructed to contain the following gene sequences, in 5′ to 3′ direction: a Lox site, a SV40 late promoter, either CHO-GPT (or Hpt), IRES, enhanced green fluorescent protein (eGFP), and a second Lox site. Purified recombinant plasmids were transfected together with a plasmid that expresses Cre recombinase, into a modified CHO host cell line containing: from 5′ to 3′, a lox site, YFP, and a second lox site, at a transcriptionally active locus. Consequently, the host CHO cell can be isolated by flow cytometry as a green-positive or a yellow-negative cell. […]
Cell populations were either incubated with 0, 1 μg/ml, 2.5 μg/ml or 5 μg/ml tunicamycin (Tn) or 400 μg hygromycin (Hyg), as outlined in Table 2. Observed recombinant populations (ORPs) were measured by fluorescent-activated cell sorting (FACS) analysis. Cells were sorted to quantitate each population of cells, and selection efficiency was calculated for cells expressing only GFP and not YFP (FIG. 4 or 5). […]

tunicamycin
Selection efficiency compared with hygromycin selection: as efficient as hygromycin selection

— patent US11085053B2, “Efficient selectivity of recombinant proteins” (REGENERON PHARMACEUTICALS, INC., priority 2014, dated 2021)
